Numbers after ± are expanded uncertainties.
Experiment: xn = mol fraction of the nth substance listed
Conditions: surface light scattering

CC(C)CC(C)(C)C [2,2,4-trimethylpentane] + CCCCCCCO
x1 = 1
Conditions | surface tension liquid-gas [mN/m]
298.15 K | 18.3 ± 0.18
303.15 K | 17.9 ± 0.18
308.15 K | 17.43 ± 0.18
313.15 K | 17.09 ± 0.17
318.15 K | 16.56 ± 0.17
323.15 K | 16.2 ± 0.16

CC(C)CC(C)(C)C [2,2,4-trimethylpentane] + CCCCCCO
x1 = 1
Conditions | surface tension liquid-gas [mN/m]
298.15 K | 18.3 ± 0.18
303.15 K | 17.9 ± 0.18
308.15 K | 17.43 ± 0.18
313.15 K | 17.09 ± 0.17
318.15 K | 16.56 ± 0.17
323.15 K | 16.2 ± 0.16

CC(C)CC(C)(C)C [2,2,4-trimethylpentane] + CCCCCO
x1 = 1
Conditions | surface tension liquid-gas [mN/m]
298.15 K | 18.3 ± 0.18
303.15 K | 17.9 ± 0.18
308.15 K | 17.43 ± 0.18
313.15 K | 17.09 ± 0.17
318.15 K | 16.56 ± 0.17
323.15 K | 16.2 ± 0.16

CC(C)CC(C)(C)C [2,2,4-trimethylpentane] + CCCO
surface tension liquid-gas [mN/m]
Conditions | x1 = 0.1 | x1 = 0.2 | x1 = 0.3 | x1 = 0.4 | x1 = 0.4999 | x1 = 0.5996 | x1 = 0.6998 | x1 = 0.7995 | x1 = 0.9 | x1 = 1
298.15 K | 22.09 ± 0.23 | 21.18 ± 0.22 | 20.58 ± 0.21 | 20.05 ± 0.2 | 19.57 ± 0.2 | 19.22 ± 0.19 | 18.96 ± 0.19 | 18.69 ± 0.19 | 18.51 ± 0.19 | 18.3 ± 0.18
303.15 K | 21.65 ± 0.22 | 20.73 ± 0.21 | 20.12 ± 0.21 | 19.6 ± 0.2 | 19.12 ± 0.19 | 18.77 ± 0.19 | 18.53 ± 0.19 | 18.26 ± 0.18 | 18.09 ± 0.18 | 17.9 ± 0.18
308.15 K | 21.23 ± 0.22 | 20.28 ± 0.21 | 19.66 ± 0.2 | 19.12 ± 0.19 | 18.64 ± 0.19 | 18.29 ± 0.19 | 18.05 ± 0.18 | 17.78 ± 0.18 | 17.62 ± 0.18 | 17.43 ± 0.18
313.15 K | 20.77 ± 0.21 | 19.81 ± 0.2 | 19.19 ± 0.2 | 18.66 ± 0.19 | 18.19 ± 0.19 | 17.85 ± 0.18 | 17.63 ± 0.18 | 17.39 ± 0.18 | 17.25 ± 0.17 | 17.09 ± 0.17
318.15 K | 20.31 ± 0.21 | 19.31 ± 0.2 | 18.67 ± 0.19 | 18.13 ± 0.18 | 17.65 ± 0.18 | 17.31 ± 0.18 | 17.09 ± 0.17 | 16.85 ± 0.17 | 16.72 ± 0.17 | 16.56 ± 0.17
323.15 K | 19.84 ± 0.2 | 18.82 ± 0.19 | 18.18 ± 0.19 | 17.64 ± 0.18 | 17.17 ± 0.17 | 16.84 ± 0.17 | 16.65 ± 0.17 | 16.43 ± 0.17 | 16.33 ± 0.16 | 16.2 ± 0.2

CC(C)CC(C)(C)C [2,2,4-trimethylpentane] + CCO
surface tension liquid-gas [mN/m]
Conditions | x1 = 0.0429 | x1 = 0.0916 | x1 = 0.1474 | x1 = 0.2119 | x1 = 0.2874 | x1 = 0.3769 | x1 = 0.4848 | x1 = 0.6173 | x1 = 0.784 | x1 = 1
288.15 K | 22.27 ± 0.23 | 21.88 ± 0.23 | 21.47 ± 0.22 | 21.11 ± 0.22 | 20.74 ± 0.21 | 20.4 ± 0.21 | 20.03 ± 0.2 | 19.75 ± 0.2 | 19.5 ± 0.2 | 19.14 ± 0.19
298.15 K | 21.38 ± 0.22 | 20.96 ± 0.22 | 20.54 ± 0.21 | 20.17 ± 0.21 | 19.8 ± 0.2 | 19.46 ± 0.2 | 19.09 ± 0.19 | 18.83 ± 0.19 | 18.62 ± 0.19 | 18.3 ± 0.18
308.15 K | 20.54 ± 0.21 | 20.11 ± 0.21 | 19.66 ± 0.2 | 19.28 ± 0.2 | 18.9 ± 0.19 | 18.55 ± 0.19 | 18.17 ± 0.18 | 17.92 ± 0.18 | 17.73 ± 0.18 | 17.43 ± 0.18
318.15 K | 19.77 ± 0.2 | 19.31 ± 0.2 | 18.85 ± 0.19 | 18.45 ± 0.19 | 18.05 ± 0.18 | 17.7 ± 0.18 | 17.31 ± 0.18 | 17.05 ± 0.17 | 16.86 ± 0.17 | 16.56 ± 0.17

CCO [ethanol] + CC(C)CC(C)(C)C
x2 = 0
Conditions | surface tension liquid-gas [mN/m]
288.15 K | 22.72 ± 0.23
298.15 K | 21.85 ± 0.23
308.15 K | 21.04 ± 0.22
318.15 K | 20.29 ± 0.21

CCO [ethanol] + CCCCCCC
x2 = 0
Conditions | surface tension liquid-gas [mN/m]
293.15 K | 22.31 ± 0.23
298.15 K | 21.85 ± 0.23
303.15 K | 21.41 ± 0.22
308.15 K | 21.04 ± 0.22
313.15 K | 20.62 ± 0.21
318.15 K | 20.29 ± 0.21

CCCCCCCO [heptan-1-ol] + CC(C)CC(C)(C)C
surface tension liquid-gas [mN/m]
Conditions | x2 = 0 | x2 = 0.1003 | x2 = 0.2002 | x2 = 0.3002 | x2 = 0.3999 | x2 = 0.5 | x2 = 0.6 | x2 = 0.6999 | x2 = 0.7999 | x2 = 0.8999
298.15 K | 26.46 ± 0.3 | 24.78 ± 0.27 | 23.26 ± 0.25 | 22.3 ± 0.24 | 21.46 ± 0.23 | 20.67 ± 0.22 | 20.04 ± 0.21 | 19.59 ± 0.2 | 19.07 ± 0.19 | 18.72 ± 0.19
303.15 K | 25.93 ± 0.29 | 24.13 ± 0.27 | 22.69 ± 0.25 | 21.74 ± 0.23 | 20.9 ± 0.22 | 20.14 ± 0.21 | 19.53 ± 0.2 | 19.1 ± 0.2 | 18.61 ± 0.19 | 18.29 ± 0.18
308.15 K | 25.43 ± 0.28 | 23.63 ± 0.26 | 22.12 ± 0.24 | 21.15 ± 0.23 | 20.32 ± 0.21 | 19.55 ± 0.2 | 18.97 ± 0.2 | 18.55 ± 0.19 | 18.08 ± 0.18 | 17.81 ± 0.18
313.15 K | 24.95 ± 0.28 | 23.15 ± 0.26 | 21.61 ± 0.23 | 20.65 ± 0.22 | 19.83 ± 0.21 | 19.08 ± 0.2 | 18.51 ± 0.19 | 18.13 ± 0.19 | 17.68 ± 0.18 | 17.45 ± 0.18
318.15 K | 24.55 ± 0.27 | 22.72 ± 0.25 | 21.11 ± 0.23 | 20.14 ± 0.22 | 19.3 ± 0.2 | 18.55 ± 0.19 | 17.97 ± 0.19 | 17.59 ± 0.18 | 17.14 ± 0.17 | 16.92 ± 0.17
323.15 K | 24.03 ± 0.27 | 22.13 ± 0.24 | 20.53 ± 0.22 | 19.6 ± 0.21 | 18.77 ± 0.2 | 18 ± 0.19 | 17.48 ± 0.18 | 17.12 ± 0.18 | 16.71 ± 0.17 | 16.53 ± 0.17

CCCCCCC [heptane] + CCO
surface tension liquid-gas [mN/m]
Conditions | x1 = 0.0481 | x1 = 0.1018 | x1 = 0.1676 | x1 = 0.2314 | x1 = 0.3171 | x1 = 0.4111 | x1 = 0.5123 | x1 = 0.6417 | x1 = 0.7983 | x1 = 1
293.15 K | 21.78 ± 0.23 | 21.27 ± 0.22 | 20.93 ± 0.22 | 20.74 ± 0.22 | 20.53 ± 0.22 | 20.36 ± 0.22 | 20.25 ± 0.22 | 20.2 ± 0.22 | 20.17 ± 0.22 | 20.12 ± 0.23
298.15 K | 21.3 ± 0.22 | 20.77 ± 0.22 | 20.41 ± 0.21 | 20.22 ± 0.21 | 20.02 ± 0.21 | 19.85 ± 0.21 | 19.75 ± 0.21 | 19.72 ± 0.21 | 19.71 ± 0.22 | 19.69 ± 0.22
303.15 K | 20.83 ± 0.22 | 20.27 ± 0.21 | 19.89 ± 0.21 | 19.7 ± 0.21 | 19.48 ± 0.21 | 19.31 ± 0.21 | 19.2 ± 0.21 | 19.16 ± 0.21 | 19.15 ± 0.21 | 19.13 ± 0.21
308.15 K | 20.43 ± 0.21 | 19.84 ± 0.21 | 19.44 ± 0.2 | 19.24 ± 0.2 | 19.02 ± 0.2 | 18.83 ± 0.2 | 18.72 ± 0.2 | 18.69 ± 0.2 | 18.68 ± 0.21 | 18.67 ± 0.21
313.15 K | 20 ± 0.21 | 19.39 ± 0.2 | 18.98 ± 0.2 | 18.76 ± 0.2 | 18.53 ± 0.2 | 18.33 ± 0.19 | 18.2 ± 0.19 | 18.16 ± 0.2 | 18.13 ± 0.2 | 18.1 ± 0.2
318.15 K | 19.64 ± 0.2 | 19.01 ± 0.2 | 18.58 ± 0.19 | 18.36 ± 0.19 | 18.12 ± 0.19 | 17.91 ± 0.19 | 17.79 ± 0.19 | 17.75 ± 0.19 | 17.73 ± 0.19 | 17.7 ± 0.2
